We go through 19 molecules from US12590062B2, “PD-1/PD-L1 inhibitors” (Gilead Sciences, Inc., priority 2017, dated 2026).

Structures are written as SMILES. Bounds are passed on as bounds.

T1 sequence (Q9NZQ7 19-290): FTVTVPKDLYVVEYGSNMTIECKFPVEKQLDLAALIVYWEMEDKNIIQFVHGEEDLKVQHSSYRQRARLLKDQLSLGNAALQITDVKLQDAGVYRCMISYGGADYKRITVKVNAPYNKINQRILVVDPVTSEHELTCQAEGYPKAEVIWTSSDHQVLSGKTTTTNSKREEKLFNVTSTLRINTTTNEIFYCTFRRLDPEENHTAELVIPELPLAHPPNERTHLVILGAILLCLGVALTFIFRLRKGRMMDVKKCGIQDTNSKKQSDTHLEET

This assay addresses T1, PD-1/PD-L1 interaction (Homo sapiens, UniProt Q9NZQ7).
T1 construct: expressed in transfected cells; host or cells: CHO cells (aAPC-PD-L1) co-cultured with Jurkat cells overexpressing PD-1 and an NFAT-luciferase reporter
Briefly: PD-1/PD-L1 NFAT reporter co-culture assay. The class given is cell-based. The conditions noted are these: Jurkat PD-1 NFAT-luciferase cells co-cultured with aAPC-PD-L1 CHO cells, 6 hrs at 37° C.; read-out: EC50 NFAT Luciferase. As for the experimental part: PD-1/PD-L1 NEAT Reporter Assay:
Compounds were tested in afunctional co-culture reporter assay in which TCR-mediated NFAT activity is inhibited by the engagement of PD-1 with PD-L1. […] CHO cells expressing surface-bound anti-CD3 antibodies and PD-L1 (artificial antigen presenting cells, aAPC-PD-L1) were first seeded overnight. Jurkat cells overexpressing PD-1 and expressing a luciferase construct under NFAT control are diluted in RPMI assay medium (RPMI 1640 with 2% FBS), mixed with compounds, and immediately seeded on the monolayer of aAPC-PD-L1. The co-culture is then incubated for 6 hrs at 37° C. Luciferase activity is assessed by adding the ONE-Glo reagent and measuring luminescence with a plate reader. EC50 values are calculated from the fit of the dose-response curves to a four-parameter equation (Table 3).
A word on the EC50: it is the midpoint of the concentration-response curve. Consider `COc1nc(OCc2cccc(-c3cccc(COc4nc(OC)c(CN[C@@H]5CCC[C@@H]5C(=O)O)cc4Cl)c3C)c2C)c(Cl)cc1CN[C@@H]1CCC[C@@H]1C(=O)O` [Example 79, (1S,1′S,2R,2′R)-2,2′-((((((2,2′-dimethyl-[1,1′-biphenyl]-3,3′-diyl)bis(methylene))bis(oxy))bis(5-chloro-2-methoxypyridine-6,3-diyl))bis(methylene))bis(azanediyl))bis(cyclopentane-1-carboxylicacid)], for which the EC50 came to 0.381 µM.
For `N#Cc1cncc(COc2nc(OCc3cccc(-c4cccc(COc5nc(OCc6cncc(C#N)c6)c(CNC[C@@H](O)CC(=O)O)cc5Br)c4Cl)c3Cl)ccc2CNC[C@@H](O)CC(=O)O)c1` [Example 194, (S)-4-(((6-((3′-(((3-Bromo-5-((((S)-3-carboxy-2-hydroxypropyl)amino)methyl)-6-((5-cyanopyridin-3-yl)methoxy)pyridin-2-yl)oxy)methyl)-2,2′-dichloro-[1,1′-biphenyl]-3-yl)methoxy)-2-((5-cyanopyridin-3-yl)methoxy)pyridin-3-yl)methyl)amino)-3-hydroxybutanoic acid], the EC50 worked out at 1.26 µM.
With `COc1nc(OCc2cccc(-c3cccc(COc4nc(OC)c(CN5CCc6[nH]cnc6C5C(=O)O)cc4Cl)c3C)c2C)c(Cl)cc1CN1CCc2[nH]cnc2C1C(=O)O` (stereo not shown) [Example 62, 5,5′-(((((2,2′-dimethyl-[1,1′-biphenyl]-3,3′-diyl)bis(methylene))bis(oxy))bis(5-chloro-2-methoxypyridine-6,3-diyl))bis(methylene))bis(4,5,6,7-tetrahydro-1H-imidazo[4,5-c]pyridine-4-carboxylic acid)], the EC50 came out at 19.5 µM.
As for `Cc1c(COc2nc(OCc3cccc(C#N)n3)c(CNC[C@@H](O)CC(=O)O)cc2Br)cccc1-c1cccc(COc2nc(OCc3cccc(C#N)n3)c(CNC[C@@H](O)CC(=O)O)cc2Br)c1C` [Example 152, (3S,3′S)-4,4′-((((((2,2′-dimethyl-[1,1′-biphenyl]-3,3′-diyl)bis(methylene))bis(oxy))bis(5-bromo-2-((6-cyanopyridin-2-yl)methoxy)pyridine-6,3-diyl))bis(methylene))bis(azanediyl))bis(3-hydroxybutanoic acid)], the EC50 came out at 0.594 µM.
As for `COc1nc(OCc2cccc(-c3cccc(COc4nc(OC)c(CN(C)CCN5CCOCC5)cc4Br)c3C)c2C)c(Br)cc1CN(C)CCN1CCOCC1` [Example 268, N,N′-(((((2,2′-dimethyl-[1,1′-biphenyl]-3,3′-diyl)bis(methylene))bis(oxy))bis(5-bromo-2-methoxypyridine-6,3-diyl))bis(methylene))bis(N-methyl-2-morpholinoethan-1-amine)], the EC50 turned out to be 0.993 µM.
For `COc1nc(OCc2cccc(-c3cccc(COc4nc(OC)c(CNCCN5CCCS5(=O)=O)cc4Br)c3C)c2C)c(Br)cc1CNCCN1CCCS1(=O)=O` [Example 264, 2,2′-(((((((2,2′-dimethyl-[1,1′-biphenyl]-3,3′-diyl)bis(methylene))bis(oxy))bis(5-bromo-2-methoxypyridine-6,3-diyl))bis(methylene))bis(azanediyl))bis(ethane-2,1-diyl))bis(isothiazolidine 1,1-dioxide)] the value was 1.29 µM; for `Cc1c(COc2cc(OCc3cncc(C#N)c3)c(CNC[C@@H](O)CC(=O)O)cc2Cl)cccc1-c1ccc2c(c1)OC(CNC[C@@H](O)CC(=O)O)CO2` (stereo partly drawn) [Example 108, (3S)-4-((4-((3-(3-((((S)-3-carboxy-2-hydroxypropyl)amino)methyl)-2,3-dihydrobenzo[b] [1,4]dioxin-6-yl)-2-methylbenzyl)oxy)-5-chloro-2-((5-cyanopyridin-3-yl)methoxy)benzyl)amino)-3-hydroxybutanoic acid], 13.9 µM; for `Cc1c(COc2nc(OCc3cc(C#N)cc(C#N)c3)c(CNC[C@@H](O)CC(=O)O)cc2Cl)cccc1-c1cccc(-c2ccc(OCCNCCO)cc2)c1C` [Example 472], 0.051 µM.
Consider `COc1nc(OCc2cccc(-c3cccc(COc4nc(OC)c(CN[C@@H](CCC(N)=O)C(=O)O)cc4Br)c3C)c2C)c(Br)cc1CN[C@@H](CCC(N)=O)C(=O)O` [Example 115, (2S,2′S)-2,2′-((((((2,2′-dimethyl-[1,1′-biphenyl]-3,3′-diyl)bis(methylene))bis(oxy))bis(5-bromo-2-methoxypyridine-6,3-diyl))bis(methylene))bis(azanediyl))bis(5-amino-5-oxopentanoic acid)], for which the concentration giving a half-maximal response (EC50) was not below 50 µM.
`COc1nc(OCc2cccc(-c3cccc(COc4nc(OC)c(CN[C@H]5CCC[C@@H](C(=O)O)C5)cc4Cl)c3C)c2C)c(Cl)cc1CN[C@H]1CCC[C@@H](C(=O)O)C1` [Example 184, (1R,1′R,3S,3′S)-3,3′-((((((2,2′-dimethyl-[1,1′-biphenyl]-3,3′-diyl)bis(methylene))bis(oxy))bis(5-chloro-2-methoxypyridine-6,3-diyl))bis(methylene))bis(azanediyl))bis(cyclohexane-1-carboxylic acid)]: the EC50 amounted to 1.39 µM.
With `COc1nc(OCc2cccc(-c3cccc(COc4nc(OC)c(CN[C@H]5CCCC[C@@H]5C(=O)O)cc4Cl)c3C)c2C)c(Cl)cc1CN[C@H]1CCCC[C@@H]1C(=O)O` [Example 80, (1S,1′S,2S,2′S)-2,2′-((((((2,2′-dimethyl-[1,1′-biphenyl]-3,3′-diyl)bis(methylene))bis(oxy))bis(5-chloro-2-methoxypyridine-6,3-diyl))bis(methylene))bis(azanediyl))bis(cyclohexane-1-carboxylic acid)], the half-maximal effective concentration (EC50) is not below 50 µM.
On to `COc1nc(OCc2cccc(-c3cccc(COc4nc(OC)c(CN[C@](C)(CO)C(=O)O)cc4Br)c3C)c2C)c(Br)cc1CN[C@](C)(CO)C(=O)O` [Example 46, (2R,2′R)-2,2′-((((((2,2′-dimethyl-[1,1′-biphenyl]-3,3′-diyl)bis(methylene))bis(oxy))bis(5-bromo-2-methoxypyridine-6,3-diyl))bis(methylene))bis(azanediyl))bis(3-hydroxy-2-methylpropanoic acid)], for which the concentration for a half-maximal effect (EC50) was 0.087 µM.
As to `COc1nc(OCc2cccc(-c3cccc(COc4nc(OC)c(CN[C@@H](CO)C(=O)O)cc4Cl)c3C)c2C)c(Cl)cc1CN[C@@H](CO)C(=O)O` [Example 50, (2S,2′S)-2,2′-((((((2,2′-dimethyl-[1,1′-biphenyl]-3,3′-diyl)bis(methylene))bis(oxy))bis(5-chloro-2-methoxypyridine-6,3-diyl))bis(methylene))bis(azanediyl))bis(3-hydroxypropanoic acid)], the 50% effective concentration (EC50) was 0.076 µM.
Take `CC[C@@H](NCc1cc(Cl)c(OCc2cccc(-c3cccc(COc4nc(OC)c(CN[C@H](CC)C(=O)O)cc4Cl)c3C)c2C)nc1OC)C(=O)O` [Example 99, (2R,2′R)-2,2′-((((((2,2′-dimethyl-[1,1′-biphenyl]-3,3′-diyl)bis(methylene))bis(oxy))bis(5-chloro-2-methoxypyridine-6,3-diyl))bis(methylene))bis(azanediyl))dibutyric acid]: the EC50 was 0.157 µM.
In the case of `COc1nc(OCc2cccc(-c3cccc(COc4nc(OC)c(CNCC(C)(C)C(=O)O)cc4Cl)c3C)c2C)c(Cl)cc1CNCC(C)(C)C(=O)O` [Example 77, 3,3′-((((((2,2′-dimethyl-[1,1′-biphenyl]-3,3′-diyl)bis(methylene))bis(oxy))bis(5-chloro-2-methoxypyridine-6,3-diyl))bis(methylene))bis(azanediyl))bis(2,2-dimethylpropanoic acid)], the 50% effective concentration (EC50) is not below 50 µM.
Consider `COc1nc(O[C@H]2CCc3c(-c4cccc(-c5ccc(OCCNCCO)cc5)c4C)cccc32)ccc1CNCC(=O)O` [Example 102, (S)-((6-((4-(4′-(2-((2-hydroxyethyl)amino)ethoxy)-2-methyl-[1,1′-biphenyl]-3-yl)-2,3-dihydro-1H-inden-1-yl)oxy)-2-methoxypyridin-3-yl)methyl)glycine], for which the EC50 stood at 13.2 µM.
For `CCOC(=O)C[C@H](O)CNCc1cc(C2CC2)c(OCc2cccc(-c3cccc(COc4nc(OC)c(CNC[C@@H](O)CC(=O)O)cc4C4CC4)c3C)c2C)nc1OC` [Example 56, (S)-4-(((5-cyclopropyl-6-((3′-(((3-cyclopropyl-5-((((S)-4-ethoxy-2-hydroxy-4-oxobutyl)amino)methyl)-6-methoxypyridin-2-yl)oxy)methyl)-2,2′-dimethyl-[1,1′-biphenyl]-3-yl)methoxy)-2-methoxypyridin-3-yl)methyl)amino)-3-hydroxybutanoic acid], the EC50 was not below 50 µM.
In the case of `COc1nc(OCc2cccc(-c3cccc(COc4nc(OC)c(CN[C@@H]5CCC[C@H]5C(=O)O)cc4Cl)c3C)c2C)c(Cl)cc1CN[C@@H]1CCC[C@H]1C(=O)O` [Example 75, (1R,1′R,2R,2′R)-2,2′-((((((2,2′-dimethyl-[1,1′-biphenyl]-3,3′-diyl)bis(methylene))bis(oxy))bis(5-chloro-2-methoxypyridine-6,3-diyl))bis(methylene))bis(azanediyl))bis(cyclopentane-1-carboxylic acid)], the EC50 came out at 0.384 µM.
On to `COc1nc(OCc2cccc(-c3cccc(COc4nc(OC)c(CNCc5c[nH]nn5)cc4Cl)c3C)c2C)c(Cl)cc1CNCc1c[nH]nn1` [Example 171, 1,1′-((((2,2′-dimethyl-[1,1′-biphenyl]-3,3′-diyl)bis(methylene))bis(oxy))bis(5-chloro-2-methoxypyridine-6,3-diyl))bis(N-((1H-1,2,3-triazol-4-yl)methyl)methanamine)], for which the 50% effective concentration (EC50) worked out at 7.72 µM.
